Values after ≈ are worked out from the molar mass of the structure shown.
Columns and labels:
[1] = test system: cisplatin induced hair cell loss; details: rat model; cited from earlier work
[2] = test system: oxidative stress-induced ototoxicity and nephrotoxicity; details: in vivo; cited from earlier work
[3] = humans, cited from earlier work
[4] = in vivo; details: for AUC(0-inf): AUC(0-inf) of D-Methionine; for concentration at 0 h: 0.00 h (predose); for concentration at 0.5 h: 0.50 h; for Cmax: Cmax of D-Methionine
Protocol: (§1) Twenty-six male Sprague-Dawley rats weighing approximately 200 to 300 g were used for the study. The jugular vein of six animals were cannulated and the rest of the animals were used without any further preparation.
(§2) Dosing was conducted on two occasions. […] The drug was prepared in a suspension formulation in accordance with the present invention. The blood samples (approximately 0.5 mL/sample) were collected from each animal at predose, 15, 30 minutes, 1, 2, 4 and 6 hours postdose into microtainer tubes containing lithium heparin as an anticoagulant. Replacement blood was infused into each animal following each blood draw. […] The drug was prepared in a solution formulation. […] Blood samples were collected from each animal via the orbital sinus at predose, 2, 15, 30 minutes, 1, 2, 4 and 6 hours postdose. Each animal was bled twice. The blood was centrifuged immediately and the resulting plasma in tubes was flash frozen in liquid nitrogen and stored at approximately −70° C. until analysis.
L-Methinione can also be detected under the same HPLC conditions.
Descriptive pharmacokinetic parameters were determined by standard model independent methods (Gibaldi, M. and Perrier, D. Pharmacokinetics, Second Edition, Marcel Dekker, Inc., New York, 1982) based on the mean plasma concentration-time data. The plasma concentrations were rounded to one decimal place before the calculation. Plasma samples with concentrations below the quantifiable limit (BQL) were assigned values of zero for the calculation of mean plasma concentration.

[5] = D-methionine IV 150 mg/kg, PO 150 or 300 mg/kg
Protocol: as §1, §2

[6] = aqueous solutions; cited from earlier work
[7] = male, Sprague-Dawley, rat, plasma, iv, 150 mg/kg, Mean Plasma Concentrations of D-Methionine, IV 150 mg/kg, solution
[8] = male, Sprague-Dawley, rat, plasma, po, 150 mg/kg, PO 150 mg/kg, solution
[9] = male, Sprague-Dawley, rat, plasma, po, 150 mg/kg, PO 150 mg/kg, suspension
[10] = male, Sprague-Dawley, rat, plasma, po, 150 mg/kg, Mean Plasma Concentrations of D-Methionine, PO 150 mg/kg, solution
[11] = male, Sprague-Dawley, rat, plasma, po, 150 mg/kg, Mean Plasma Concentrations of D-Methionine, PO 150 mg/kg, suspension
[12] = male, Sprague-Dawley, rat, plasma, po, 300 mg/kg, PO 300 mg/kg, suspension
[13] = male, Sprague-Dawley, rat, plasma, po, 300 mg/kg, Mean Plasma Concentrations of D-Methionine, PO 300 mg/kg, suspension

**Q.** With `CSCC[C@@H](N)C(=O)O` [D-Methionine, D-methionine] as the compound, how does the “effect on cisplatin damage to the stria vascularis” value [1] read?
**A.** markedly reduce cisplatin damage to the stria vascularis

**Q.** And the “effect on cisplatin induced hair cell loss” value [1]?
**A.** prevent cisplatin induced hair cell loss

**Q.** And the “effect on oxidative stress-induced ototoxicity and nephrotoxicity associated with cisplatin” value [2]?
**A.** effectively prevent

**Q.** What about the “plasma levels compared with L-methionine” value [3] of the same compound?
**A.** higher plasma levels than L-methionine

**Q.** What about the “fraction excreted without conversion to the L-isomer” value ([3]; except in L-methionine deprivation) of the same compound?
**A.** 60-70%

**Q.** And the “time point at which Cmax was observed” value ([4]; PO 150 mg/kg, solution, first collection time point)?
**A.** 30 min

**Q.** What about the “first-pass metabolism suggested by systemic clearance” value ([4]; from CL after IV 150 mg/kg) of the same compound?
**A.** will not be subjected to extensive first-pass metabolism

**Q.** What about the clearance ([4]; male, Sprague-Dawley, rat, plasma, iv, 150 mg/kg) of the same compound?
**A.** 9.28 mL/min/kg

**Q.** And the AUC(0-inf) ([4]; male, Sprague-Dawley, rat, plasma, iv, 150 mg/kg, IV 150 mg/kg, solution)?
**A.** 269 µg·h/mL

**Q.** And the concentration at 0 h [4, 7]?
**A.** 0 ng/mL

**Q.** What about the concentration at 0.03 h ([4]; male, Sprague-Dawley, rat, plasma, iv, 150 mg/kg, Mean Plasma Concentrations of D-Methionine, IV 150 mg/kg, solution, 0.03 h) of the same compound?
**A.** 471 ng/mL

**Q.** And the concentration at 0.25 h [4, 7]?
**A.** 220 ng/mL

**Q.** What about the concentration at 0.5 h [4, 7] of the same compound?
**A.** 106 ng/mL

**Q.** What about the concentration at 1 h [4, 7] of the same compound?
**A.** 64 ng/mL

**Q.** What about the concentration at 2 h [4, 7] of the same compound?
**A.** 32.2 ng/mL

**Q.** What about the concentration at 4 h [4, 7] of the same compound?
**A.** 6.13 ng/mL

**Q.** And the concentration at 6 h [4, 7]?
**A.** 1.45 ng/mL

**Q.** And the half-life ([4]; male, Sprague-Dawley, rat, plasma, iv, 150 mg/kg, T1/2 (terminal half-life) of D-Methionine, IV 150 mg/kg, solution)?
**A.** 54 min

**Q.** What about the bioavailability ([4]; male, Sprague-Dawley, rat, plasma, oral, 150 mg/kg) of the same compound?
**A.** 61.3%

**Q.** And the Tmax ([4]; male, Sprague-Dawley, rat, plasma, po, 150 mg/kg)?
**A.** 30 min

**Q.** What about the AUC(0-inf) [4, 8] of the same compound?
**A.** 165 µg·h/mL

**Q.** And the AUC(0-inf) [4, 9]?
**A.** 120 µg·h/mL

**Q.** What about the Cmax [4, 8] of the same compound?
**A.** 77100 ng/mL

**Q.** And the Cmax [4, 9]?
**A.** 71100 ng/mL

**Q.** And the concentration at 0 h [4, 10]?
**A.** 0 ng/mL

**Q.** What about the concentration at 0.5 h [4, 10] of the same compound?
**A.** 77.1 ng/mL

**Q.** What about the concentration at 1 h [4, 10] of the same compound?
**A.** 54.1 ng/mL

**Q.** And the concentration at 2 h [4, 10]?
**A.** 41.7 ng/mL

**Q.** And the concentration at 4 h [4, 10]?
**A.** 7.67 ng/mL

**Q.** And the concentration at 6 h [4, 10]?
**A.** 3.4 ng/mL

**Q.** What about the concentration at 12 h ([4]; male, Sprague-Dawley, rat, plasma, po, 150 mg/kg, Mean Plasma Concentrations of D-Methionine, PO 150 mg/kg, solution, 12.00 h) of the same compound?
**A.** 0 ng/mL

**Q.** What about the concentration at 0 h [4, 11] of the same compound?
**A.** 0 ng/mL

**Q.** What about the concentration at 0.25 h [4, 11] of the same compound?
**A.** 69.5 ng/mL

**Q.** And the concentration at 0.5 h [4, 11]?
**A.** 71.1 ng/mL

**Q.** And the concentration at 1 h [4, 11]?
**A.** 44.1 ng/mL

**Q.** What about the concentration at 2 h [4, 11] of the same compound?
**A.** 20.9 ng/mL

**Q.** And the concentration at 4 h [4, 11]?
**A.** 4 ng/mL

**Q.** What about the concentration at 6 h [4, 11] of the same compound?
**A.** 1.7 ng/mL

**Q.** And the half-life ([4]; male, Sprague-Dawley, rat, plasma, po, 150 mg/kg, T1/2 (terminal half-life) of D-Methionine, PO 150 mg/kg, solution)?
**A.** 66 min

**Q.** And the half-life ([4]; male, Sprague-Dawley, rat, plasma, po, 150 mg/kg, T1/2 of D-Methionine, PO 150 mg/kg, suspension)?
**A.** 60 min

**Q.** What about the Tmax ([4]; male, Sprague-Dawley, rat, plasma, po, 300 mg/kg) of the same compound?
**A.** 30 min

**Q.** What about the AUC(0-inf) [4, 12] of the same compound?
**A.** 359 µg·h/mL

**Q.** And the Cmax [4, 12]?
**A.** 175000 ng/mL

**Q.** And the concentration at 0 h [4, 13]?
**A.** 0 ng/mL

**Q.** And the concentration at 0.25 h [4, 13]?
**A.** 120 ng/mL

**Q.** What about the concentration at 0.5 h [4, 13] of the same compound?
**A.** 175 ng/mL

**Q.** What about the concentration at 1 h [4, 13] of the same compound?
**A.** 128 ng/mL

**Q.** And the concentration at 2 h [4, 13]?
**A.** 71.4 ng/mL

**Q.** What about the concentration at 4 h [4, 13] of the same compound?
**A.** 22.7 ng/mL

**Q.** And the concentration at 6 h [4, 13]?
**A.** 5.5 ng/mL

**Q.** What about the half-life ([4]; male, Sprague-Dawley, rat, plasma, po, 300 mg/kg, T1/2 of D-Methionine, PO 300 mg/kg, suspension) of the same compound?
**A.** 66 min

**Q.** And the “terminal half-life (conclusion)” value ([4]; rats, IV and PO)?
**A.** approximately one hour

**Q.** What about the mortality [5] of the same compound?
**A.** no mortality occurred

**Q.** And the solubility [6]?
**A.** 50 mg/mL (≈ 335 mM)
